Experiments:
COX2 [1] = experiment: Test 3: COX2 expression after oxidative insult (previous test repeated, 3 hours and 24 hours); format: cell-based, human
Description: (§1) Tests on the capacity of the indicated preparations to prevent oxidative damage, induced in dermal tissue cells, were conducted on human fibroblasts which were isolated then cultivated in a suitable culture medium. Oxidative stress was induced by adding a mixture of 40 mM xanthine and 2 mM hypoxanthine to the culture medium, a mixture with known ability to induce formation of Reactive Oxygen Species (ROS), agents which cause cell damage up to necrosis. The preparations under examination could be added, or not, to the broth at the same time as the xanthine/hypoxanthine mixture. The contact time between the xanthine/hypoxanthine mixture and the preparations was 2 hours, at the end of which the cells were transplanted into a fresh culture medium, i.e. containing neither the stress-inducing mixture nor the substance, then allowed to quiesce for periods of 3 or 24 hours. At the end of the stated period, gene expression of the prostaglandin G/H synthase and cyclooxygenase2 (COX2) enzyme was detected which is indicative of the inflammatory state induced in cells by oxidative stress.

COX2 [2] = experiment: Test 2: COX2 expression in human fibroblasts after xanthine/hypoxanthine oxidative stress; format: cell-based; conditions: 24 hours after oxidative stress, insulted human fibroblasts
Description: as §1
Expression of COX2 (normalized fluorescence units vs housekeeping gene 18s rRNA) 24 hours after oxidative stress, in “insulted” cells in the presence of curcumin, curcumin complexed with Zn and FDP used separately, and in the presence of the ternary system.

O=P(O)(O)OC[C@H]1O[C@@](O)(COP(=O)(O)O)[C@@H](O)[C@@H]1O [FDP, Fructose 1-6 diphosphate]
COX2 expression after oxidative insult (COX2 [1]; 5 mM, 3 hours): 7.87 normalized fluorescence units vs housekeeping gene 18s rRNA | COX2 expression after oxidative insult (COX2 [1]; 5 mM, 24 hours): 7.14 normalized fluorescence units vs housekeeping gene 18s rRNA | COX2 expression after oxidative insult (COX2 [1]; 10 mM, 3 hours): 6.90 normalized fluorescence units vs housekeeping gene 18s rRNA | COX2 expression after oxidative insult (COX2 [1]; 10 mM, 24 hours): 6.45 normalized fluorescence units vs housekeeping gene 18s rRNA | Expression of COX2 (COX2 [2]; 5 mM): 7.14 normalized fluorescence units vs housekeeping gene 18s rRNA

C[C@H]1[C@H](C)CC[C@]2(C)CC[C@]3(C)C(=CC[C@@H]4[C@@]5(C)CC[C@@H](O)[C@](C)(C(=O)O)[C@@H]5CC[C@]43C)[C@H]12 [boswellic acid]
COX2 expression after oxidative insult (COX2 [1]; 100 μM, 3 hours): 7.80 normalized fluorescence units vs housekeeping gene 18s rRNA | COX2 expression after oxidative insult (COX2 [1]; 100 μM, 24 hours): 8.00 normalized fluorescence units vs housekeeping gene 18s rRNA | COX2 expression after oxidative insult (COX2 [1]; 300 μM, 3 hours): 8.10 normalized fluorescence units vs housekeeping gene 18s rRNA | COX2 expression after oxidative insult (COX2 [1]; 300 μM, 24 hours): 8.90 normalized fluorescence units vs housekeeping gene 18s rRNA

COc1cc(/C=C/C(=O)CC(=O)/C=C/c2ccc(O)c(OC)c2)ccc1O [curcumin, Curcumin]
COX2 expression after oxidative insult (COX2 [1]; 3 μM, 3 hours): 5.76 normalized fluorescence units vs housekeeping gene 18s rRNA | COX2 expression after oxidative insult (COX2 [1]; 3 μM, 24 hours): 5.00 normalized fluorescence units vs housekeeping gene 18s rRNA | COX2 expression after oxidative insult (COX2 [1]; 6 μM, 3 hours): 5.45 normalized fluorescence units vs housekeeping gene 18s rRNA | COX2 expression after oxidative insult (COX2 [1]; 6 μM, 24 hours): 4.90 normalized fluorescence units vs housekeeping gene 18s rRNA | COX2 expression after oxidative insult (COX2 [1]; 9 μM, 3 hours): 5.10 normalized fluorescence units vs housekeeping gene 18s rRNA | COX2 expression after oxidative insult (COX2 [1]; 9 μM, 24 hours): 4.78 normalized fluorescence units vs housekeeping gene 18s rRNA | Expression of COX2 (COX2 [2]; 3 μM): 5.00 normalized fluorescence units vs housekeeping gene 18s rRNA | Expression of COX2 (COX2 [2]; 6 μM): 4.90 normalized fluorescence units vs housekeeping gene 18s rRNA
